Measurements: the NIST ThermoML archive (doi:10.1021/je400536f)
± gives the expanded uncertainty stated by the source.

Tests used:
[1] = 298.15 K, 100 kPa, Liquid; for viscosity: Concentric cylinders viscometry; for mass density: Vibrating tube method
[2] = mn = molality of the nth substance listed, in mol/kg; settings: 298.15 K, 100 kPa, Liquid, dip-type immersion conductivity cell

CNC=O [N-methylformamide]
[1]
Settings	mass density [kg/m3]	viscosity [mPa·s]
–	997.61 ± 5.4	1.65 ± 0.07

NC=O [formamide]
[1]
Settings	mass density [kg/m3]	viscosity [mPa·s]
–	1129.22 ± 6.9	3.3 ± 0.1

C[N+](=O)[O-] [nitromethane]
[1]
Settings	mass density [kg/m3]	viscosity [mPa·s]
–	1130.15 ± 6.9	0.62 ± 0.06

CCCC[N+](CCCC)(CCCC)CCCC.[O-][Cl+3]([O-])([O-])[O-] [tetrabutylammonium perchlorate] + CNC=O
[2]
Settings	molar conductivity [S·m2/mol]
m1 = 0.000795	0.00449 ± 0.00012
m1 = 0.001513	0.00423 ± 0.00011
m1 = 0.002025	0.00407 ± 9.9e-05
m1 = 0.002735	0.00389 ± 9.6e-05
m1 = 0.003295	0.00371 ± 9e-05
m1 = 0.003956	0.00358 ± 8.1e-05
m1 = 0.004802	0.00342 ± 7.7e-05
m1 = 0.005388	0.00333 ± 7.4e-05
m1 = 0.006053	0.00323 ± 7.3e-05
m1 = 0.006823	0.00309 ± 7e-05
m1 = 0.007832	0.00293 ± 6.6e-05
m1 = 0.008798	0.00279 ± 6.2e-05

CCCC[N+](CCCC)(CCCC)CCCC.[O-][Cl+3]([O-])([O-])[O-] [tetrabutylammonium perchlorate] + C[N+](=O)[O-]
[2]
Settings	molar conductivity [S·m2/mol]
m1 = 0.000864	0.0101 ± 0.00023
m1 = 0.001347	0.0098 ± 0.00022
m1 = 0.001806	0.00954 ± 0.00021
m1 = 0.00243	0.00927 ± 0.00021
m1 = 0.002992	0.00899 ± 0.0002
m1 = 0.003528	0.00879 ± 0.00019
m1 = 0.004186	0.00854 ± 0.00018
m1 = 0.004998	0.00831 ± 0.00018
m1 = 0.005715	0.00809 ± 0.00017
m1 = 0.006642	0.00777 ± 0.00017
m1 = 0.007639	0.00753 ± 0.00016
m1 = 0.008668	0.00731 ± 0.00015

CCCC[N+](CCCC)(CCCC)CCCC.[O-][Cl+3]([O-])([O-])[O-] [tetrabutylammonium perchlorate] + NC=O
[2]
Settings	molar conductivity [S·m2/mol]
m1 = 0.000807	0.00312 ± 9e-05
m1 = 0.001498	0.0029 ± 8e-05
m1 = 0.002061	0.00278 ± 7.1e-05
m1 = 0.002673	0.00264 ± 6.6e-05
m1 = 0.003238	0.00255 ± 6.1e-05
m1 = 0.003856	0.00244 ± 5.9e-05
m1 = 0.004665	0.00231 ± 5.5e-05
m1 = 0.005242	0.00224 ± 5.1e-05
m1 = 0.006209	0.00212 ± 4.8e-05
m1 = 0.007157	0.00202 ± 4.4e-05
m1 = 0.00801	0.00196 ± 4.3e-05
m1 = 0.008612	0.00189 ± 4.3e-05

CCCC[N+](CCCC)(CCCC)CCCC.F[B-](F)(F)F [tetrabutylammonium tetrafluoroborate] + CNC=O
[2]
Settings	molar conductivity [S·m2/mol]
m1 = 0.000795	0.00352 ± 9.3e-05
m1 = 0.001513	0.00331 ± 9e-05
m1 = 0.002025	0.00314 ± 8.1e-05
m1 = 0.002735	0.00299 ± 7.4e-05
m1 = 0.003295	0.00286 ± 6.9e-05
m1 = 0.003956	0.00275 ± 6.4e-05
m1 = 0.004802	0.00262 ± 6.1e-05
m1 = 0.005388	0.00253 ± 6.1e-05
m1 = 0.006053	0.0024 ± 5.6e-05
m1 = 0.007327	0.00223 ± 5.2e-05
m1 = 0.007832	0.00216 ± 5e-05
m1 = 0.008798	0.00204 ± 4.7e-05

CCCC[N+](CCCC)(CCCC)CCCC.F[B-](F)(F)F [tetrabutylammonium tetrafluoroborate] + C[N+](=O)[O-]
[2]
Settings	molar conductivity [S·m2/mol]
m1 = 0.000773	0.00833 ± 0.00022
m1 = 0.001303	0.00794 ± 0.00021
m1 = 0.001731	0.00765 ± 0.00019
m1 = 0.002372	0.00735 ± 0.00017
m1 = 0.002927	0.00709 ± 0.00016
m1 = 0.003576	0.00684 ± 0.00016
m1 = 0.004134	0.0066 ± 0.00015
m1 = 0.004914	0.0064 ± 0.00014
m1 = 0.005655	0.00617 ± 0.00014
m1 = 0.006577	0.00594 ± 0.00013
m1 = 0.007569	0.00568 ± 0.00012
m1 = 0.008556	0.00543 ± 0.00012

CCCC[N+](CCCC)(CCCC)CCCC.F[B-](F)(F)F [tetrabutylammonium tetrafluoroborate] + NC=O
[2]
Settings	molar conductivity [S·m2/mol]
m1 = 0.000829	0.00215 ± 5.8e-05
m1 = 0.001452	0.00203 ± 5.6e-05
m1 = 0.002025	0.00192 ± 5.1e-05
m1 = 0.002632	0.00183 ± 4.7e-05
m1 = 0.003181	0.00175 ± 4.5e-05
m1 = 0.003782	0.00167 ± 4.1e-05
m1 = 0.00457	0.00158 ± 3.9e-05
m1 = 0.005291	0.0015 ± 3.6e-05
m1 = 0.006131	0.00143 ± 3.4e-05
m1 = 0.007056	0.00134 ± 3.4e-05
m1 = 0.007921	0.00125 ± 3.3e-05
m1 = 0.008482	0.00119 ± 3.2e-05
